Source: US6762160B2, “Composition for removing biofilms comprising a detergent and a salt forming acid” (Universite de Montreal, priority 1998, dated 2004)
Entries after “also recorded” stand apart in the source; their conditions may differ.

Columns and labels:
[1] = system: mature biofilms on lumen of dental unit waterlines tubings; test: Biofilm removal from dental unit waterline tubing pieces, binocular microscope 40x, arbitrary scale; format: cell-based, dental unit waterlines bacteria; details: for detergent capable of dislodging biofilms: different types of detergents tried; as to RESULTS AFTER DISINFECTION 1 hour (biofilm scale): key: −: no biofilm; ++++: + ++ + : no significant removal of film; as to RESULTS AFTER DISINFECTION 18 hours (biofilm scale): key: −: no biofilm; ++++: + ++ + : no significant removal of film
Method: Two-cm long pieces of dental unit waterlines tubings were used. These tubings were taken from functional dental units installed at the faculty of dentistry of the University of Montreal. […] The pieces were sectioned longitudinally with a sterile scalpel blade to expose the biofilm. Another series of tubings was left untouched. Sections of tubings were placed in sterile 5 ml disposable test tubes containing solutions to be tested.
After 1 or 18 hours without agitation at room temperature, tubings were rinsed three times with sterile water.

[2] = system: dental unit waterlines bacteria; test: Antibacterial activity: growth in R2Am medium after disinfection of tubings;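 also: disinfected tubing pieces kept 7 days at room temperature in R2Am medium, then scored for presence or absence of bacterial growth by absorbance at 590 nm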
Method: To test the antibacterial activity, we used the same setup as above. After the 1 or 18 hour incubation, tubings were rinsed with sterile water. Pieces of tubings were dropped in sterile test tubes containing 4 ml of R2Am medium. Test tubes were capped and incubated for 7 days at room temperature. […] Data were recorded as presence or absence of growth with a spectrophotometer at λ=590 nm.

Mycobacterium sp. = format: cell-based
[3] = acid 1% in H2O2 5%/EDTA 1%/SDS 1% solution, pH 5.0, 1 hour or 18 hours
[4] = selected acid 1% with H2O2 5%, EDTA 1%, SDS 1%, pH 5,0, tubing incubated 7 days in R2Am, 590 nm
[5] = selected acid 1% with H2O2 5%, EDTA 1%, SDS 1%, pH 5,0, 1 hour contact, room temperature, no agitation
[6] = selected acid 1% with H2O2 5%, EDTA 1%, SDS 1%, pH 5,0, 18 hours contact, room temperature, no agitation

Row | Compound | acceptably performing acids: decontamination within the specified times [1, 3] | RESULTS AFTER DISINFECTION Growth [2, 4] | other results
1 | O=C(O)CCCCC(=O)O [Adipic Acid] | sufficient decontamination | − | 
2 | O=C(O)CC(=O)O [Malonic Acid] |  | − | 
3 | O=C(O)CC(O)C(=O)O (stereo not shown) [Malic Acid] | sufficient decontamination | − | 
4 | O=C(O)c1ccccc1 [Benzoic Acid] |  |  | acceptably performing acids: decontamination within the specified times ([1]; pH 5): sufficient decontamination; RESULTS AFTER DISINFECTION Growth ([2]; pH 5): −
5 | O=C(O)C(=O)O [Oxalic Acid] | sufficient decontamination | − | 
6 | CC(O)C(=O)O (stereo not shown) [Lactic Acid] |  | − | 
7 | O=C(O)C(O)C(O)C(=O)O [D-Tartric acid] |  | − | 
8 | NC(=O)C(=O)O [Oxamic Acid] | sufficient decontamination | − | 
9 | NC(Cc1ccc(O)cc1)C(=O)O (racemic) [DL-Tyrosine] | sufficient decontamination | − | 
10 | O=C(O)CO [Glycolic Acid] |  | − | RESULTS AFTER DISINFECTION 1 hour (biofilm scale) [1, 5]: −; RESULTS AFTER DISINFECTION 18 hours (biofilm scale) [1, 6]: −
11 | O=C(O)CCC(=O)O [Succinic Acid] | sufficient decontamination | − | 
12 | O=C(O)/C=C/C(=O)O [Fumaric Acid] |  | − | RESULTS AFTER DISINFECTION 1 hour (biofilm scale) [1, 5]: −; RESULTS AFTER DISINFECTION 18 hours (biofilm scale) [1, 6]: −
13 | NCC(=O)O [Glycine] | sufficient decontamination | − | 
14 | CCCCCCCCCCCCOS(=O)(=O)[O-].[Na+] [SDS, Sodium dodecyl sulfate] |  |  | biofilm removal efficiency after 18 hours ([1]; SDS 0.15% with 6% hydrogen peroxide, HEEDTA 0.3%, acetic acid 0.1%, zinc sulfate heptahydrate 0.1%, pH adjusted to 5, 18 hours): perfect efficiency; biofilm removal activity after one hour ([1]; SDS 0.15% with 6% hydrogen peroxide, HEEDTA 0.3%, acetic acid 0.1%, zinc sulfate heptahydrate 0.1%, pH adjusted to 5, one hour, sulfate): very good activity; also recorded: did work well; cleaning efficacy within one hour ([1]; SDS 1%, within one hour): perfect cleaning efficacy; detergent capable of dislodging biofilms [1]: capable of dislodging biofilms
15 | OCl [sodium hypochlorite] |  |  | killing activity of bactericide, even against Mycobacterium sp. (Mycobacterium sp.): broad host killing activity; also recorded: efficient
16 | O=C(O)[C@@H](O)[C@H](O)[C@H](O)[C@@H](O)C(=O)O [Mucic Acid] |  | − | RESULTS AFTER DISINFECTION 1 hour (biofilm scale) [1, 5]: −; RESULTS AFTER DISINFECTION 18 hours (biofilm scale) [1, 6]: −
17 | N[C@@H](CC(=O)O)C(=O)O [L-Aspartic Acid] |  | − | RESULTS AFTER DISINFECTION 18 hours (biofilm scale) [1, 6]: −
18 | N[C@@H](CO)C(=O)O [L-Serine] | sufficient decontamination | − | 
19 | O=C(O)/C=C\C(=O)O [Maleic Acid] | sufficient decontamination | − | 
20 | O=C(O)CNC(CO)(CO)CO [Tricine] | sufficient decontamination | − | 
21 | CC(=O)C(=O)O [Pyruvic Acid] |  | − | RESULTS AFTER DISINFECTION 18 hours (biofilm scale) [1, 6]: −
22 | O=P(O)(O)O [Phosphoric Acid (H3PO4), Phosphoric Acid] |  | − | RESULTS AFTER DISINFECTION 18 hours (biofilm scale) [1, 6]: −
23 | Sodium cocoyl sarcosinate [SCS] |  |  | detergent capable of dislodging biofilms [1]: capable of dislodging biofilms
24 | R-Chloromandelic Acid | sufficient decontamination | − | 
25 | O=CO [Formic Acid] |  |  | acceptably performing acids: decontamination within the specified times ([1]; pH 5): sufficient decontamination; RESULTS AFTER DISINFECTION Growth ([2]; pH 5): −

Row | Compound | acceptably performing acids: decontamination within the specified times [1, 3] | RESULTS AFTER DISINFECTION Growth [2, 4] | other results
26 | N[C@@H](C(=O)O)c1ccccc1 [R-2-Phenylglycine] |  | − | 
27 | Tetrasodium EDTA |  |  | chelator tried against biofilms [1]: a certain degree of success
28 | O=C[C@H](O)[C@@H](O)[C@H](O)[C@H](O)C(=O)O [Glucuronic Acid] | sufficient decontamination | − | 
29 | O=C(O)C(O)c1ccccc1 (stereo not shown) [Mandelic Acid] |  | − | salt-forming acid tried against biofilm ([1]; mandelic acid 1% to 10%): success; RESULTS AFTER DISINFECTION 1 hour (biofilm scale) [1, 5]: −; RESULTS AFTER DISINFECTION 18 hours (biofilm scale) [1, 6]: −
30 | O=C(O)CNCC(=O)O [Iminodiacetic Acid] |  | − | RESULTS AFTER DISINFECTION 1 hour (biofilm scale) [1, 5]: −; RESULTS AFTER DISINFECTION 18 hours (biofilm scale) [1, 6]: −
31 | O=C(O)C(=O)c1ccccc1 [Benzoylformic Acid] | sufficient decontamination | − | 
32 | Povidone-iodine |  |  | efficiency of bactericide combined to detergent ([1]; combined to the detergent Tween 20): significant efficiency; detergent capable of dislodging biofilms [1]: capable of dislodging biofilms; bactericide tried in cleaning solution [2]: success
33 | OB(O)O [Boric Acid (B(OH)3), Boric Acid] | sufficient decontamination | − | 
34 | Ketopimelic Acid | sufficient decontamination | − | 
35 | O=C(O)CC(O)(CC(=O)O)C(=O)O [Citric Acid] | sufficient decontamination | − | 
36 | O=C(O)c1ccccc1C(=O)O [Phthalic Acid] | sufficient decontamination | − | 
37 | O=C(O)c1ccccc1O [Salicylic Acid] | sufficient decontamination | − | 
38 | O=C(O)CN(CC(=O)O)CC(=O)O [Nitrilotriacetic Acid] | sufficient decontamination | − | 
39 | Sodium n-decyl diphenylether disulfonate [SDDD] |  |  | detergent capable of dislodging biofilms [1]: capable of dislodging biofilms
40 | N[C@@H](CCC(=O)O)C(=O)O [Glutamic Acid] | sufficient decontamination | − | 
41 | CC(=O)O [Acetic Acid] |  | − | salt-forming acid tried against biofilm ([1]; acetic acid 0.1% to 1%): very efficient; RESULTS AFTER DISINFECTION 1 hour (biofilm scale) [1, 5]: −; RESULTS AFTER DISINFECTION 18 hours (biofilm scale) [1, 6]: −
42 | CC(N)C(=O)O (racemic) [DL-Alanine] |  | − | RESULTS AFTER DISINFECTION 18 hours (biofilm scale) [1, 6]: −
43 | O=C1O[C@H]([C@@H](O)CO)C(O)=C1O [L-Ascorbic Acid] |  | − | RESULTS AFTER DISINFECTION 1 hour (biofilm scale) [1, 5]: ++++
44 | O=C(O)C(Cl)Cl [Dichloroacetic Acid] |  | − | acceptably performing acids: decontamination within the specified times ([1]; pH 5): sufficient decontamination
45 | O=C(O)CN(CCO)CCO [Bicine] | sufficient decontamination | − | 
46 | O=C(O)CCl [Chloroacetic Acid] |  |  | RESULTS AFTER DISINFECTION 18 hours (biofilm scale) ([1]; pH 5): −; RESULTS AFTER DISINFECTION Growth ([2]; pH 5): −
47 | O=C(O)Cc1ccccc1 [Phenylacetic Acid] | sufficient decontamination | − | 
48 | O=C(O)CCC(=O)C(=O)O [2-Ketoglutaric Acid] |  |  | RESULTS AFTER DISINFECTION 1 hour (biofilm scale) ([1]; pH 5): −; RESULTS AFTER DISINFECTION 18 hours (biofilm scale) ([1]; pH 5): −; RESULTS AFTER DISINFECTION Growth ([2]; pH 5): −
49 | N[C@@H](Cc1c[nH]c2ccccc12)C(=O)O [L-Tryptophan] |  |  | acceptably performing acids: decontamination within the specified times ([1]; pH 5): sufficient decontamination; RESULTS AFTER DISINFECTION Growth ([2]; pH 5): −
50 | N[C@H](Cc1ccccc1)C(=O)O [D-Phenylalanine] |  | − | 
